Laboratory results published in patent US12077503B2, “Substituted cyclic amides and their use as herbicides” (FMC CORPORATION, priority 2015, dated 2024).

Key:
Type in all cases: in vivo
[1] = tested on: ivy-leaved morning glory (Ipomoea hederacea); assay: Test G Post-Emergence Protocol; details: Ipomoea, post-emergence, 312 h; for pest or weed control at 15.625 g/ha: 15.625 g ai/ha, evaluated after 13 days (100=total damage to plant; 0=no damage to plant), read-out: Morningglory, Ivy-leaved damage rating; for pest or weed control at 62.5 g/ha: 62.5 g ai/ha, read-out: Morningglory, Ivy-leaved damage rating (100=total damage to plant; 0=no damage to plant); for pest or weed control at 62.5 g/ha / pest or weed control at 250 g/ha: evaluated after 13 days; for pest or weed control at 250 g/ha: 250 g ai/ha, read-out: damage to plant, Morningglory, Ivy-leaved (100=total damage to plant; 0=no damage to plant)
Method in brief: (§1)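 Post-emergence herbicidal damage, scored visually 0–100 at 13 days. Application at 15.625, 62.5 or 250 g/ha onto 8-day-old plants grown under glasshouse control.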

[2] = tested on: redroot pigweed (Amaranthus retroflexus); assay: Test G Post-Emergence Protocol; details: Amaranthus retroflexus, post-emergence, 312 h; for pest or weed control at 15.625 g/ha: 15.625 g ai/ha, evaluated after 13 days (100=total damage to plant; 0=no damage to plant), read-out: Pigweed, Redroot damage rating; for pest or weed control at 62.5 g/ha: 62.5 g ai/ha, read-out: Pigweed, Redroot damage rating (100=total damage to plant; 0=no damage to plant); for pest or weed control at 62.5 g/ha / pest or weed control at 250 g/ha: evaluated after 13 days; for pest or weed control at 250 g/ha: 250 g ai/ha, read-out: damage to plant, Pigweed, Redroot (100=total damage to plant; 0=no damage to plant)
Method in brief: as §1

[3] = tested on: barnyardgrass (Echinochloa crus-galli); assay: Test G Post-Emergence Protocol; details: Echinochloa crus-galli, post-emergence, 312 h; for pest or weed control at 15.625 g/ha: 15.625 g ai/ha, evaluated after 13 days (100=total damage to plant; 0=no damage to plant), read-out: Barnyardgrass damage rating; for pest or weed control at 62.5 g/ha: 62.5 g ai/ha, read-out: Barnyardgrass damage rating (100=total damage to plant; 0=no damage to plant); for pest or weed control at 62.5 g/ha / pest or weed control at 250 g/ha: evaluated after 13 days; for pest or weed control at 250 g/ha: 250 g ai/ha, read-out: damage to plant, Barnyardgrass (100=total damage to plant; 0=no damage to plant)
Method in brief: as §1

[4] = tested on: giant foxtail (Setaria faberi); assay: Test G Post-Emergence Protocol; details: Setaria faberi, post-emergence, 312 h; for pest or weed control at 15.625 g/ha: 15.625 g ai/ha, evaluated after 13 days (100=total damage to plant; 0=no damage to plant), read-out: Foxtail, Giant damage rating; for pest or weed control at 62.5 g/ha: 62.5 g ai/ha, read-out: Foxtail, Giant damage rating (100=total damage to plant; 0=no damage to plant); for pest or weed control at 62.5 g/ha / pest or weed control at 250 g/ha: evaluated after 13 days; for pest or weed control at 250 g/ha: 250 g ai/ha, read-out: damage to plant, Foxtail, Giant (100=total damage to plant; 0=no damage to plant)
Method in brief: as §1

[5] = tested on: corn (Zea mays); assay: Test G Post-Emergence Protocol; details: Zea mays, post-emergence, 312 h; for plant injury at 15.625 g/ha: 15.625 g ai/ha, evaluated after 13 days (100=total damage to plant; 0=no damage to plant), read-out: Corn damage rating; for plant injury at 62.5 g/ha: 62.5 g ai/ha, read-out: Corn damage rating (100=total damage to plant; 0=no damage to plant); for plant injury at 62.5 g/ha / plant injury at 250 g/ha: evaluated after 13 days; for plant injury at 250 g/ha: 250 g ai/ha, read-out: damage to plant, Corn (100=total damage to plant; 0=no damage to plant)
Method in brief: as §1

[6] = tested on: velvetleaf (Abutilon theophrasti); assay: Test G Post-Emergence Protocol; details: Abutilon theophrasti, post-emergence, 312 h; for pest or weed control at 15.625 g/ha: 15.625 g ai/ha, evaluated after 13 days (100=total damage to plant; 0=no damage to plant), read-out: Velvetleaf damage rating; for pest or weed control at 62.5 g/ha: 62.5 g ai/ha, read-out: Velvetleaf damage rating (100=total damage to plant; 0=no damage to plant); for pest or weed control at 62.5 g/ha / pest or weed control at 250 g/ha: evaluated after 13 days; for pest or weed control at 250 g/ha: 250 g ai/ha, read-out: damage to plant, Velvetleaf (100=total damage to plant; 0=no damage to plant)
Method in brief: as §1

[7] = tested on: ivy-leaved morning glory (Ipomoea hederacea); assay: Test G Pre-Emergence Protocol; details: Ipomoea, pre-emergence, 312 h, evaluated after 13 days; for pest or weed control at 15.625 g/ha: 15.625 g ai/ha, read-out: Morning-glory, Ivy-leaved damage rating (100=total damage to plant; 0=no damage to plant); for pest or weed control at 62.5 g/ha: 62.5 g ai/ha, 100=total damage to plant, 0=no damage to plant, read-out: plant damage rating, Morningglory, Ivy-leaved; for pest or weed control at 250 g/ha: 250 g ai/ha, read-out: Morningglory, Ivy-leaved damage rating (100=total damage to plant; 0=no damage to plant)
Method in brief: (§2)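 Spraying took place one day after sowing, at 15.625, 62.5 or 250 g/ha, using an acetone/water (50:50) spray solution containing 0.5% Tween 20. Plants were kept under glasshouse conditions (24/16 °C, 14 h light, 65% humidity, watered twice daily), and injury was rated 0–100 at day 13.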

[8] = tested on: redroot pigweed (Amaranthus retroflexus); assay: Test G Pre-Emergence Protocol; details: Amaranthus retroflexus, pre-emergence, 312 h, evaluated after 13 days; for pest or weed control at 15.625 g/ha: 15.625 g ai/ha; for pest or weed control at 15.625 g/ha / pest or weed control at 250 g/ha: read-out: Pigweed, Redroot damage rating (100=total damage to plant; 0=no damage to plant); for pest or weed control at 62.5 g/ha: 62.5 g ai/ha, 100=total damage to plant, 0=no damage to plant, read-out: plant damage rating, Pigweed, Redroot; for pest or weed control at 250 g/ha: 250 g ai/ha
Method in brief: as §2

[9] = tested on: barnyardgrass (Echinochloa crus-galli); assay: Test G Pre-Emergence Protocol; details: Echinochloa crus-galli, pre-emergence, 312 h, evaluated after 13 days; for pest or weed control at 15.625 g/ha: 15.625 g ai/ha, read-out: Barnyard grass damage rating (100=total damage to plant; 0=no damage to plant); for pest or weed control at 62.5 g/ha: 62.5 g ai/ha, 100=total damage to plant, 0=no damage to plant, read-out: plant damage rating, Barnyardgrass; for pest or weed control at 250 g/ha: 250 g ai/ha, read-out: Barnyardgrass damage rating (100=total damage to plant; 0=no damage to plant)
Method in brief: as §2

[10] = tested on: giant foxtail (Setaria faberi); assay: Test G Pre-Emergence Protocol; details: Setaria faberi, pre-emergence, 312 h, evaluated after 13 days; for pest or weed control at 15.625 g/ha: 15.625 g ai/ha; for pest or weed control at 15.625 g/ha / pest or weed control at 250 g/ha: read-out: Foxtail, Giant damage rating (100=total damage to plant; 0=no damage to plant); for pest or weed control at 62.5 g/ha: 62.5 g ai/ha, 100=total damage to plant, 0=no damage to plant, read-out: plant damage rating, Foxtail, Giant; for pest or weed control at 250 g/ha: 250 g ai/ha
Method in brief: as §2

[11] = tested on: corn (Zea mays); assay: Test G Pre-Emergence Protocol; details: Zea mays, pre-emergence, 312 h, evaluated after 13 days; for plant injury at 15.625 g/ha: 15.625 g ai/ha; for plant injury at 15.625 g/ha / plant injury at 250 g/ha: read-out: Corn damage rating (100=total damage to plant; 0=no damage to plant); for plant injury at 62.5 g/ha: 62.5 g ai/ha, 100=total damage to plant, 0=no damage to plant, read-out: plant damage rating, Corn; for plant injury at 250 g/ha: 250 g ai/ha
Method in brief: as §2

[12] = tested on: velvetleaf (Abutilon theophrasti); assay: Test G Pre-Emergence Protocol; details: Abutilon theophrasti, pre-emergence, 312 h, evaluated after 13 days; for pest or weed control at 15.625 g/ha: 15.625 g ai/ha; for pest or weed control at 15.625 g/ha / pest or weed control at 250 g/ha: read-out: Velvetleaf damage rating (100=total damage to plant; 0=no damage to plant); for pest or weed control at 62.5 g/ha: 62.5 g ai/ha, 100=total damage to plant, 0=no damage to plant, read-out: plant damage rating, Velvetleaf; for pest or weed control at 250 g/ha: 250 g ai/ha
Method in brief: as §2

## COc1nccc(NC(=O)[C@@H]2C(=O)N(C)C[C@H]2c2ccc(C(F)(F)F)cc2)n1 (racemic) [Compound 1640]
[1]
  pest or weed control at 15.625 g/ha: 0%
  pest or weed control at 62.5 g/ha: 0%
  pest or weed control at 250 g/ha: 0%
[2]
  pest or weed control at 15.625 g/ha: 0%
  pest or weed control at 62.5 g/ha: 0%
  pest or weed control at 250 g/ha: 0%
[3]
  pest or weed control at 15.625 g/ha: 0%
  pest or weed control at 62.5 g/ha: 0%
  pest or weed control at 250 g/ha: 0%
[4]
  pest or weed control at 15.625 g/ha: 0%
  pest or weed control at 62.5 g/ha: 0%
  pest or weed control at 250 g/ha: 0%
[5]
  plant injury at 15.625 g/ha: 0%
  plant injury at 62.5 g/ha: 0%
  plant injury at 250 g/ha: 0%
[6]
  pest or weed control at 15.625 g/ha: 0%
  pest or weed control at 62.5 g/ha: 0%
  pest or weed control at 250 g/ha: 0%
[7]
  pest or weed control at 15.625 g/ha: 0%
  pest or weed control at 62.5 g/ha: 0%
  pest or weed control at 250 g/ha: 0%
[8]
  pest or weed control at 15.625 g/ha: 0%
  pest or weed control at 62.5 g/ha: 0%
  pest or weed control at 250 g/ha: 0%
[9]
  pest or weed control at 15.625 g/ha: 0%
  pest or weed control at 62.5 g/ha: 0%
  pest or weed control at 250 g/ha: 0%
[10]
  pest or weed control at 15.625 g/ha: 0%
  pest or weed control at 62.5 g/ha: 0%
  pest or weed control at 250 g/ha: 0%
[11]
  plant injury at 15.625 g/ha: 0%
  plant injury at 62.5 g/ha: 0%
  plant injury at 250 g/ha: 0%
[12]
  pest or weed control at 15.625 g/ha: 0%
  pest or weed control at 62.5 g/ha: 0%
  pest or weed control at 250 g/ha: 0%

## Cc1cc(NC(=O)[C@@H]2C(=O)N(C)C[C@H]2c2ccc(C(F)(F)F)cc2)ccc1F (racemic) [Compound 1593]
[1]
  pest or weed control at 15.625 g/ha: 0%
  pest or weed control at 62.5 g/ha: 0%
  pest or weed control at 250 g/ha: 0%
[2]
  pest or weed control at 15.625 g/ha: 0%
  pest or weed control at 62.5 g/ha: 0%
  pest or weed control at 250 g/ha: 0%
[3]
  pest or weed control at 15.625 g/ha: 0%
  pest or weed control at 62.5 g/ha: 0%
  pest or weed control at 250 g/ha: 20%
[4]
  pest or weed control at 15.625 g/ha: 0%
  pest or weed control at 62.5 g/ha: 10%
  pest or weed control at 250 g/ha: 70%
[5]
  plant injury at 15.625 g/ha: 0%
  plant injury at 62.5 g/ha: 10%
  plant injury at 250 g/ha: 10%
[6]
  pest or weed control at 15.625 g/ha: 0%
  pest or weed control at 62.5 g/ha: 0%
  pest or weed control at 250 g/ha: 0%
[7]
  pest or weed control at 15.625 g/ha: 0%
  pest or weed control at 62.5 g/ha: 0%
  pest or weed control at 250 g/ha: 0%
[8]
  pest or weed control at 15.625 g/ha: 0%
  pest or weed control at 62.5 g/ha: 0%
  pest or weed control at 250 g/ha: 0%
[9]
  pest or weed control at 15.625 g/ha: 0%
  pest or weed control at 62.5 g/ha: 0%
  pest or weed control at 250 g/ha: 20%
[10]
  pest or weed control at 15.625 g/ha: 0%
  pest or weed control at 62.5 g/ha: 10%
  pest or weed control at 250 g/ha: 70%
[11]
  plant injury at 15.625 g/ha: 0%
  plant injury at 62.5 g/ha: 0%
  plant injury at 250 g/ha: 0%
[12]
  pest or weed control at 15.625 g/ha: 0%
  pest or weed control at 62.5 g/ha: 0%
  pest or weed control at 250 g/ha: 0%
